Reference: BindingDB's records for doi:10.7270/Q2CF9NJZ (Nmmlsc, 2010)

Target: Regulator of G-protein signaling 4 (Homo sapiens, UniProt P49798)
Experiment: small molecules altering RGS4 interaction with Galphao – biochemical, multiplexed bead flow cytometry, SAR compounds, SAR follow-up (AID 2295)
Settings: not given

Chain of Regulator of G-protein signaling 4 (P49798 whole entry): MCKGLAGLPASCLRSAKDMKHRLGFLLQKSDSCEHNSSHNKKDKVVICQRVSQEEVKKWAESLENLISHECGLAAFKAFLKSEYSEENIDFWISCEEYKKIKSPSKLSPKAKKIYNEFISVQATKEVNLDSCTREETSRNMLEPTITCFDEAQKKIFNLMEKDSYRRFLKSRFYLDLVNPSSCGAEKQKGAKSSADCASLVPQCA

EC50 | Compound
0.3 µM | Cc1cc(Cl)ccc1/N=c1/ssnc1Cl [MLS000539990]
0.269 µM | O=C1C(Cl)=C(N2CCCCC2)C(=O)C(Cl)=C1c1cnc(N2CCCCC2)s1 [MLS000550549]
6.61 µM | CCC(=O)NC(c1ccc(C)cc1)c1cc([N+](=O)[O-])c2cccnc2c1O (configuration not stated) [MLS000553854]
0.573 µM | COc1ccc(C2=CC(=O)C=CC2=O)cc1 [MLS001029846]
> 30 µM | CC1(C)OC(=O)C(=Cc2ccc(-c3ccc(S(N)(=O)=O)cc3)o2)C(=O)O1 [SMR000273939]
1.1 µM | O=C(Cc1csc(N2CCOCC2)n1)NN=Cc1ccc(O)c(O)c1O [SMR000369439]
> 30 µM | Nc1c(C(=O)NCC2CCCO2)sc2nc3c(c(-c4ccco4)c12)CC/C3=C/c1ccco1 (configuration not stated) [UNM-0000305796]

The next lines start with the compound.

Compound | EC50
CN1CCN(C2=C(Cl)C(=O)C(c3cnc(N4CCCCC4)s3)=C(Cl)C2=O)CC1 | 0.336 µM
CCN=c1scc(C)n1N=Cc1ccc(O)c(O)c1O | 3.52 µM
CCN(CC)S(=O)(=O)c1cccc(C(=O)NN=Cc2ccc(O)c(O)c2O)c1 | 0.632 µM
Cc1cccc(N2CCN(C(=O)COc3nsc4nc(C)cc(C)c34)CC2C)c1 (configuration not stated) | 6.85 µM
Cc1cccc(N2CCN(C(=O)Cn3ccc4nc(C)cc(C)c4c3=O)CC2C)c1 (configuration not stated) [2,4-dimethyl-6-[2-[3-methyl-4-(3-methylphenyl)piperazin-1-yl]-2-oxidanylidene-ethyl]-1,6-naphthyridin-5-one] | > 30 µM
Cc1cc(C)c2c(=O)n(CC(=O)N3CCN(c4ccccc4)CC3)ccc2n1 [2,4-dimethyl-6-[2-oxidanylidene-2-(4-phenylpiperazin-1-yl)ethyl]-1,6-naphthyridin-5-one] | > 30 µM
Cc1cc(C)c2c(n1)CCN(CC(=O)N1CCN(c3ccccc3)CC1)C2=O [2,4-dimethyl-6-[2-oxidanylidene-2-(4-phenylpiperazin-1-yl)ethyl]-7,8-dihydro-1,6-naphthyridin-5-one] | > 30 µM
O=c1c2ccccc2sn1-c1ccc(S(=O)(=O)N2CCCC2)cc1 [2-(4-pyrrolidin-1-ylsulfonylphenyl)-1,2-benzothiazol-3-one] | 0.323 µM
Cc1cccc(N2CCN(C(=O)COc3noc4nc(C)cc(C)c34)CC2C)c1 (configuration not stated) [2-[(4,6-dimethyl-[1,2]oxazolo[5,4-b]pyridin-3-yl)oxy]-1-[3-methyl-4-(3-methylphenyl)piperazin-1-yl]ethanone] | > 30 µM
O=c1c2ccccc2sn1-c1ccccc1 [2-phenyl-1,2-benzothiazol-3-one] | 0.135 µM
O=C(NCCCN1CCOCC1)c1sc2cc([N+](=O)[O-])ccc2c1Cl [3-chloranyl-N-(3-morpholin-4-ylpropyl)-6-nitro-1-benzothiophene-2-carboxamide] | 10.1 µM
COC(=O)CCC(=O)Nc1sc(C)c(C)c1C(N)=O [4-[(3-carbamoyl-4,5-dimethyl-2-thienyl)amino]-4-keto-butyric acid methyl ester] | > 30 µM
CCN(CC)S(=O)(=O)c1cccc(-c2n[nH]c(=S)n2N=Cc2ccc(C(=O)OC)cc2)c1 [4-[(E)-[3-[3-(diethylsulfamoyl)phenyl]-5-thioxo-1H-1,2,4-triazol-4-yl]iminomethyl]benzoic acid methyl ester] | 9.64 µM
NS(=O)(=O)c1ccc(N=NCc2ccc(O)c(O)c2O)c([N+](=O)[O-])c1 [4-[[(E)-(2,3-dihydroxy-4-oxo-1-cyclohexa-2,5-dienylidene)methyl]hydrazo]-3-nitrobenzenesulfonamide] | 1.2 µM
CCOC(=O)c1sc(NC(=O)CSc2nnc(Cc3ccccc3)o2)c(C#N)c1C [4-cyano-3-methyl-5-[[1-oxo-2-[[5-(phenylmethyl)-1,3,4-oxadiazol-2-yl]thio]ethyl]amino]-2-thiophenecarboxylic acid ethyl ester] | 7.85 µM
CN=c1scc(C)n1N=Cc1ccc(O)c(O)c1O [(4E)-2,3-dihydroxy-4-[[(4-methyl-2-methylimino-1,3-thiazol-3-yl)amino]methylidene]cyclohexa-2,5-dien-1-one] | 1.71 µM
Cc1[nH]n(-c2ccccc2)c(=S)c1/C=N/c1cccc([N+](=O)[O-])c1 [(4E)-5-methyl-4-[(3-nitroanilino)methylene]-2-phenyl-2-pyrazoline-3-thione] | 11 µM
Cc1cccc(N2CCN(C(=O)CN3CCc4nc(C)cc(C)c4C3=O)CC2C)c1 (configuration not stated) [KUC103675N] | > 30 µM
O=C(COc1ccccc1C(=O)NN=Cc1ccc(O)c(O)c1)NN=Cc1ccc(O)c(O)c1 [N''-[(Z)-(3-hydroxy-4-oxo-1-cyclohexa-2,5-dienylidene)methyl]-2-[2-[[(Z)-(3-hydroxy-4-oxo-1-cyclohexa-2,5-dienylidene)methyl]hydrazo]-2-oxoethoxy]benzohydrazide] | 0.164 µM

Same assay, conditions: inactive by the depositor's call

EC50 | Compound
3.66 µM | CCOc1ccccc1-c1c2cc(O)c(=O)cc-2oc2cc(O)c(O)cc12 [MLS000578271]
